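A five-concentration, 48-hour dose response in 96-well plates underlies each endpoint, interpolated linearly between surrounding concentrations. GI50 = concentration required for 50% inhibition of growth. At the TGI there is no net growth.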
Key:
Assay in all cases: DTP human tumour cell line panel, 48 h
MDA-MB-231 breast = system: MDA-MB-231 breast
EKVX NSCLC = system: EKVX NSCLC
SK-MEL-2 melanoma = system: SK-MEL-2 melanoma
SNB-75 CNS = system: SNB-75 CNS
MCF7 breast = system: MCF7 breast
HL-60(TB) leukemia = system: HL-60(TB) leukemia
RPMI-8226 leukemia = system: RPMI-8226 leukemia
SNB-19 CNS = system: SNB-19 CNS
DU-145 prostate = system: DU-145 prostate
SF-539 CNS = system: SF-539 CNS
M14 melanoma = system: M14 melanoma
SF-295 CNS = system: SF-295 CNS
OVCAR-3 ovarian = system: OVCAR-3 ovarian
OVCAR-4 ovarian = system: OVCAR-4 ovarian
LOX IMVI melanoma = system: LOX IMVI melanoma
RXF 393 renal = system: RXF 393 renal
BT-549 breast = system: BT-549 breast
CAKI-1 renal = system: CAKI-1 renal
UO-31 renal = system: UO-31 renal
NCI/ADR-RES ovarian = system: NCI/ADR-RES ovarian
OVCAR-5 ovarian = system: OVCAR-5 ovarian
NCI-H23 lung = system: NCI-H23 lung
SF-268 CNS = system: SF-268 CNS
NCI-H226 lung = system: NCI-H226 lung
U251 CNS = system: U251 CNS
HCT-15 colon = system: HCT-15 colon
NCI-H460 lung = system: NCI-H460 lung
HCT-116 colon = system: HCT-116 colon
SK-OV-3 ovarian = system: SK-OV-3 ovarian

Work on COc1cc2c3c(n(CCCN4CCCC4)c(=O)c2cc1OC)-c1cc2c(cc1C3=O)OCO2 yielded a GI50 (MDA-MB-231 breast) of 1650 nM, a TGI (MDA-MB-231 breast) of 3.31 µM and a GI50 (EKVX NSCLC) of 1950 nM. For the same compound, the TGI (EKVX NSCLC) was 3.96 µM, the GI50 (SK-MEL-2 melanoma) was 17.1 µM and the TGI (SK-MEL-2 melanoma) was 33.6 µM. The GI50 (SNB-75 CNS) was 286 nM, the TGI (SNB-75 CNS) was 1960 nM and the GI50 (MCF7 breast) was 228 nM. The TGI (MCF7 breast) was 2210 nM, the GI50 (HL-60(TB) leukemia) was 677 nM and the TGI (HL-60(TB) leukemia) was 1890 nM. For the same compound, the GI50 (RPMI-8226 leukemia) was 1250 nM, the TGI (RPMI-8226 leukemia) was 4.5 µM and the GI50 (SNB-19 CNS) was 1540 nM. The TGI (SNB-19 CNS) was 3.72 µM, the GI50 (DU-145 prostate) was 1310 nM and the TGI (DU-145 prostate) was 2580 nM. The GI50 (SF-539 CNS) was 1320 nM, the TGI (SF-539 CNS) was 2770 nM and the GI50 (M14 melanoma) was 1500 nM. The TGI (M14 melanoma) was 3.01 µM, the GI50 (SF-295 CNS) was 223 nM and the TGI (SF-295 CNS) was 2010 nM. The GI50 (OVCAR-3 ovarian) was 1570 nM, the TGI (OVCAR-3 ovarian) was 2980 nM and the GI50 (OVCAR-4 ovarian) was 1770 nM. The TGI (OVCAR-4 ovarian) was 3.38 µM, the GI50 (LOX IMVI melanoma) was 680 nM and the TGI (LOX IMVI melanoma) was 2290 nM. For the same compound, the GI50 (RXF 393 renal) was 1490 nM, the TGI (RXF 393 renal) was 2950 nM and the GI50 (BT-549 breast) was 1400 nM. For the same compound, the TGI (BT-549 breast) was 3.49 µM, the GI50 (CAKI-1 renal) was 1160 nM and the TGI (CAKI-1 renal) was 2450 nM. The GI50 (UO-31 renal) was 1430 nM, the TGI (UO-31 renal) was 2850 nM and the GI50 (NCI/ADR-RES ovarian) was 1350 nM. For the same compound, the TGI (NCI/ADR-RES ovarian) was 3.68 µM, the GI50 (OVCAR-5 ovarian) was 1900 nM and the TGI (OVCAR-5 ovarian) was 3.5 µM. For the same compound, the GI50 (NCI-H23 lung) was 1630 nM, the TGI (NCI-H23 lung) was 3.98 µM and the GI50 (SF-268 CNS) was 650 nM. It also gave a TGI (SF-268 CNS) of 2370 nM, a GI50 (NCI-H226 lung) of 5.87 µM and a TGI (NCI-H226 lung) of 20.5 µM. For the same compound, the GI50 (U251 CNS) was 1180 nM, the TGI (U251 CNS) was 2480 nM and the GI50 (HCT-15 colon) was 1430 nM. For the same compound, the TGI (HCT-15 colon) was 3.1 µM, the GI50 (NCI-H460 lung) was 206 nM and the TGI (NCI-H460 lung) was 2240 nM. For the same compound, the GI50 (HCT-116 colon) was 1140 nM, the TGI (HCT-116 colon) was 2690 nM and the GI50 (SK-OV-3 ovarian) was 795 nM. It also gave a TGI (SK-OV-3 ovarian) of 2460 nM.

Source: PubChem BioAssay (NCI)
